target: T1, ERR1 (also known as ERR-α or ERR-1) (Homo sapiens, UniProt P11474); experiment: TR-FRET assay (disruption of co-activator peptide binding to ERR1 LBD); format: biochemical; details: 6 nM 6His-ERR1LBD, 6 nM GST-SRC-2 peptide; average of 3 independent experiments
T1 sequence (P11474 193-421 limits assumed): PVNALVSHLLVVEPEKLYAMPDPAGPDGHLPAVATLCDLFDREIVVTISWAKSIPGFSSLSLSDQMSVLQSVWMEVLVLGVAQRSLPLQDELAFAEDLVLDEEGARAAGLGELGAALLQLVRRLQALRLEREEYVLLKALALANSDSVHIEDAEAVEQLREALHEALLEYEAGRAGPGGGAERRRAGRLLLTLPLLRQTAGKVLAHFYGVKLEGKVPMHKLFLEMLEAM
How it was run: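 Homogeneous TR-FRET measuring displacement of GST-hSRC2 co-activator peptide (6 nM) from His-tagged ERR1 LBD (6 nM), detected with α-GST Eu cryptate (30 nM) and α-His-XL665 (7.5 nM). Buffer 25 mM Tris pH 8, 2.5 mM Hepes, 20 mM KCl, 1 mM DTT, 0.05 mg/mL delipidated BSA; equilibration 4-18 h at 25° C. Hyperbolic dose-response fit, mean of 3 experiments.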

Row | Structure (SMILES) | EC50 [nM]
1 | O=C1S/C(=C\c2ccc3c(cnn3Cc3ccc(C(F)(F)F)cc3C(F)(F)F)c2)C(=O)N1C[C@H]1CCCN1 [Compound 82, (5Z)-5-({1-[2,4-Bis(trifluoromethyl)benzyl]-1H-indazol-5-yl}methylidene)-3-[(2R)-pyrrolidin-2-ylmethyl]-1,3-thiazolidine-2,4-dione] | 81
2 | O=C1S/C(=C\c2ccc3c(cnn3Cc3ccc(C(F)(F)F)cc3C(F)(F)F)c2)C(=O)N1C[C@@H]1CCCN1 [Compound 83, (5Z)-5-({1-[2,4-Bis(trifluoromethyl)benzyl]-1H-indazol-5-yl}methylidene)-3-[(2S)-pyrrolidin-2-ylmethyl]-1,3-thiazolidine-2,4-dione] | 82
3 | O=C1S/C(=C\c2ccc3c(cnn3Cc3ccc(C(F)(F)F)cc3C(F)(F)F)c2)C(=O)N1CCN1CCCC1 [Compound 84, (5Z)-5-({1-[2,4-Bis(trifluoromethyl)benzyl]-1H-indazol-5-yl}methylidene)-3-(2-pyrrolidin-1-ylethyl)-1,3-thiazolidine-2,4-dione] | 580
4 | O=C1S/C(=C\c2ccc3c(cnn3Cc3ccc(Cl)cc3C(F)(F)F)c2)C(=O)N1Cc1c[nH]nn1 [Compound 85, (5Z)-5-({1-[4-Chloro-2-(trifluoromethyl)benzyl]-1H-indazol-5-yl}methylidene)-3-(1H-1,2,3-triazol-4-ylmethyl)-1,3-thiazolidine-2,4-dione] | 136
5 | Cc1nc(CN2C(=O)S/C(=C\c3ccc4c(cnn4Cc4ccc(Cl)cc4C(F)(F)F)c3)C2=O)n[nH]1 [Compound 86, (5Z)-5-({1-[4-Chloro-2-(trifluoromethyl)benzyl]-1H-indazol-5-yl}methylidene)-3-[(5-methyl-1H-1,2,4-triazol-3-yl)methyl]-1,3-thiazolidine-2,4-dione] | 89
6 | NS(=O)(=O)NC(=O)CN1C(=O)S/C(=C\c2ccc3c(cnn3Cc3ccc(C(F)(F)F)cc3C(F)(F)F)c2)C1=O [Compound 87, 2-[(5Z)-5-({1-[2,4-Bis(trifluoromethyl)benzyl]-1H-indazol-5-yl}methylidene)-2,4-dioxo-1,3-thiazolidin-3-yl]-N-sulfamoylacetamide] | 650
7 | CN(C)S(=O)(=O)NC(=O)CN1C(=O)S/C(=C\c2ccc3c(cnn3Cc3ccc(C(F)(F)F)cc3C(F)(F)F)c2)C1=O [Compound 88, 2-[(5Z)-5-({1-[2,4-Bis(trifluoromethyl)benzyl]-1H-indazol-5-yl}methylidene)-2,4-dioxo-1,3-thiazolidin-3-yl]-N-(dimethylsulfamoyl)acetamide] | 134
8 | O=C1S/C(=C\c2ccc3c(cnn3Cc3ccc(Cl)cc3C(F)(F)F)c2)C(=O)N1C1(C(=O)O)CC1 [Compound 89, 1-[(5Z)-5-({1-[4-Chloro-2-(trifluoromethyl)benzyl]-1H-indazol-5-yl}methylidene)-2,4-dioxo-1,3-thiazolidin-3-yl]cyclopropanecarboxylic acid] | 92
9 | O=C1S/C(=C\c2ccc3c(cnn3Cc3ccc(Cl)cc3C(F)(F)F)c2)C(=O)N1Cc1nc[nH]n1 [Compound 90, (5Z)-5-({1-[4-Chloro-2-(trifluoromethyl)benzyl]-1H-indazol-5-yl}methylidene)-3-(1H-1,2,4-triazol-3-ylmethyl)-1,3-thiazolidine-2,4-dione] | 28
10 | O=C1S/C(=C\c2ccc3c(cnn3Cc3ccc(Cl)cc3C(F)(F)F)c2)C(=O)N1Cc1nccs1 [Compound 92, (5Z)-5-({1-[4-Chloro-2-(trifluoromethyl)benzyl]-1H-indazol-5-yl}methylidine)-3-(1,3-thiazol-2-ylmethyl)-1,3-thiazolidine-2,4-dione] | 24
11 | O=C1S/C(=C\c2ccc3c(cnn3Cc3ccc(Cl)cc3C(F)(F)F)c2)C(=O)N1Cc1cscn1 [Compound 93] | 14
12 | O=C1S/C(=C\c2ccc3c(cnn3Cc3ccc(Cl)cc3C(F)(F)F)c2)C(=O)N1Cc1cncs1 [Compound 94, (5Z)-5-({1-[4-Chloro-2-(trifluoromethyl)benzyl]-1H-indazol-5-yl}methylidene)-3-(1,3-thiazol-5-ylmethyl)-1,3-thiazolidine-2,4-dione] | ≥ 10000

— patent US8796256B2 (Janssen Pharmaceutica NV, priority 2010, dated 2014)
